Source: patent US11034650B2, “Compounds useful for treating a Mannheimia haemolytica or Histophilus somni infection” (Intervet Inc., priority 2016, dated 2021)
Converted amounts (≈) assume the structure as drawn.

Assays:
Format in all cases: cell-based
[1] = test system: Mannheimia haemolytica MH 6357 (M7/2, reference strain, cattle infection strain); assay: MIC, broth-microdilution (CLSI VET01-A4), strain MH 6357; conditions: Mannheimia haemolytica strain MH 6357, broth-microdilution; unit assumed
Summary of the method: (§1)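 Using trays holding a doubling concentration series, the MIC is read as the minimal concentration with no eye-detectable growth.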

[2] = test system: Mannheimia haemolytica MH 6374 (ATCC 33396, reference strain); assay: MIC, broth-microdilution (CLSI VET01-A4), strain MH 6374; conditions: Mannheimia haemolytica strain MH 6374, broth-microdilution; unit assumed
Summary of the method: as §1

[3] = test system: Mannheimia haemolytica MH 10720 (154, BRD field isolate); assay: MIC, broth-microdilution (CLSI VET01-A4), strain MH 10720; conditions: Mannheimia haemolytica strain MH 10720, broth-microdilution; unit assumed
Summary of the method: as §1

[4] = test system: Mannheimia haemolytica MH 12587 (1071, BRD field isolate, macrolide-resistance: erm+, E+); assay: MIC, broth-microdilution (CLSI VET01-A4), strain MH 12587; conditions: Mannheimia haemolytica strain MH 12587, broth-microdilution; unit assumed
Summary of the method: as §1

[5] = test system: Mannheimia haemolytica MH 13065 (XB0446-6003.9, BRD field isolate); assay: MIC, broth-microdilution (CLSI VET01-A4), strain MH 13065; conditions: Mannheimia haemolytica strain MH 13065, broth-microdilution; unit assumed
Summary of the method: as §1

[6] = test system: Mannheimia haemolytica MH 13093 (XB0472-6014.1, BRD field isolate); assay: MIC, broth-microdilution (CLSI VET01-A4), strain MH 13093; conditions: Mannheimia haemolytica strain MH 13093, broth-microdilution; unit assumed
Summary of the method: as §1

[7] = test system: Pasteurella multocida PM 6267 (P 2225 (L386), reference strain, mouse infection strain); assay: MIC, broth-microdilution (CLSI VET01-A4), strain PM 6267; conditions: Pasteurella multocida strain PM 6267, broth-microdilution; unit assumed
Summary of the method: as §1

[8] = test system: Pasteurella multocida PM 6391 (ATCC 43137, reference strain); assay: MIC, broth-microdilution (CLSI VET01-A4), strain PM 6391; conditions: Pasteurella multocida strain PM 6391, broth-microdilution; unit assumed
Method: For example, representative compounds were tested against ***, Mannheimia haemolytica and Pasteurella multocida, using the conventional broth-dilution assay.
The Minimum inhibitory concentrations (MIC) of compounds according to the invention for a number of veterinary bacterial pathogens were determined by the broth-microdilution method according to CLSI document VET01-A4.
Microdilution trays containing a doubling dilution series of the test compound were used for the tests. The MIC results were interpreted according to the CLSI documents VET01-S3. The lowest concentration of compound at which no visible growth (i.e. no turbidity) detected by the unaided eye was recorded as the MIC.

[9] = test system: Pasteurella multocida PM 10775 (080130003051, BRD field isolate); assay: MIC, broth-microdilution (CLSI VET01-A4), strain PM 10775; conditions: Pasteurella multocida strain PM 10775, broth-microdilution; unit assumed
Summary of the method: as §1

[10] = test system: Pasteurella multocida PM 12080 (IV102277-0093, BRD field isolate); assay: MIC, broth-microdilution (CLSI VET01-A4), strain PM 12080; conditions: Pasteurella multocida strain PM 12080, broth-microdilution; unit assumed
Summary of the method: as §1

Compound | MIC PM 6267 [7] | MIC PM 6391 [8] | MIC PM 10775 [9] | MIC PM 12080 [10] | MIC MH 6357 [1] | MIC MH 6374 [2] | MIC MH 10720 [3] | MIC MH 12587 [4] | MIC MH 13065 [5] | MIC MH 13093 [6]
C=CCNCc1ccc(C#Cc2ccc(C(=O)N[C@H](C(=O)NO)C(C)(C)SC)cc2)s1 [Compound 301] | 0.4 mg/L (≈ 0.874 µM) | 1.6 mg/L (≈ 3.5 µM) | ≤ 0.1 mg/L | 0.4 mg/L (≈ 0.874 µM) | 0.4 mg/L (≈ 0.874 µM) | 0.8 mg/L (≈ 1.75 µM) | ≤ 0.1 mg/L | 0.8 mg/L (≈ 1.75 µM) | 0.4 mg/L (≈ 0.874 µM) | 0.8 mg/L (≈ 1.75 µM)
CSC(C)(C)[C@H](NC(=O)c1ccc(C#Cc2ccc(CNCc3cccnc3)nc2)cc1)C(=O)NO [Compound 367] | 0.4 mg/L (≈ 0.794 µM) | 0.4 mg/L (≈ 0.794 µM) | ≤ 0.1 mg/L | 0.2 mg/L (≈ 0.397 µM) | 0.8 mg/L (≈ 1.59 µM) | 0.8 mg/L (≈ 1.59 µM) | 0.4 mg/L (≈ 0.794 µM) | 3.1 mg/L (≈ 6.16 µM) | 1.6 mg/L (≈ 3.18 µM) | 3.1 mg/L (≈ 6.16 µM)
CSC(C)(C)[C@H](NC(=O)c1ccc(C#Cc2ccc(CNC3CCC3)cc2)cc1)C(=O)NO [Compound 243] | 0.2 mg/L (≈ 0.43 µM) | 0.8 mg/L (≈ 1.72 µM) | ≤ 0.1 mg/L | 0.4 mg/L (≈ 0.859 µM) | 3.1 mg/L (≈ 6.66 µM) | 3.1 mg/L (≈ 6.66 µM) | 0.4 mg/L (≈ 0.859 µM) | 3.1 mg/L (≈ 6.66 µM) | 1.6 mg/L (≈ 3.44 µM) | 1.6 mg/L (≈ 3.44 µM)
CC[C@H](C)[C@H](NC(=O)c1ccc(C#Cc2ccc(CNCc3ccco3)cc2)cc1)C(=O)NO [Compound 181] | 0.4 mg/L (≈ 0.87 µM) | 0.8 mg/L (≈ 1.74 µM) | ≤ 0.1 mg/L | 0.4 mg/L (≈ 0.87 µM) | 0.4 mg/L (≈ 0.87 µM) | 0.8 mg/L (≈ 1.74 µM) | ≤ 0.1 mg/L | 1.6 mg/L (≈ 3.48 µM) | 0.8 mg/L (≈ 1.74 µM) | 0.8 mg/L (≈ 1.74 µM)
CC(C)(O)[C@H](NC(=O)c1ccc(C#Cc2ccc(CNCc3nccs3)s2)cc1)C(=O)NO [Compound 359] | ≤ 0.1 mg/L | ≤ 0.1 mg/L | 0.2 mg/L (≈ 0.413 µM) | ≤ 0.1 mg/L | 0.4 mg/L (≈ 0.825 µM) | 0.2 mg/L (≈ 0.413 µM) | ≤ 0.1 mg/L | 0.4 mg/L (≈ 0.825 µM) | 0.2 mg/L (≈ 0.413 µM) | 0.4 mg/L (≈ 0.825 µM)
CCCNCc1ccc(C#Cc2ccc(C(=O)N[C@H](C(=O)NO)[C@@H](C)CC)cc2)cc1 [Compound 193] | 0.4 mg/L (≈ 0.949 µM) | 0.8 mg/L (≈ 1.9 µM) | ≤ 0.1 mg/L | 0.4 mg/L (≈ 0.949 µM) | 6.3 mg/L (≈ 14.9 µM) | 6.3 mg/L (≈ 14.9 µM) | 0.8 mg/L (≈ 1.9 µM) | 6.3 mg/L (≈ 14.9 µM) | 3.1 mg/L (≈ 7.35 µM) | 3.1 mg/L (≈ 7.35 µM)
CC(C)(O)[C@H](NC(=O)c1ccc(C#Cc2ccc(CNCc3ccncc3)cc2)cc1)C(=O)NO [Compound 275] | ≤ 0.1 mg/L | ≤ 0.1 mg/L | ≤ 0.1 mg/L | ≤ 0.1 mg/L | 0.4 mg/L (≈ 0.846 µM) | 0.2 mg/L (≈ 0.423 µM) | ≤ 0.1 mg/L | 0.4 mg/L (≈ 0.846 µM) | 0.2 mg/L (≈ 0.423 µM) | 0.4 mg/L (≈ 0.846 µM)

Continued, in another order:

MIC PM 6267 [7] | MIC PM 6391 [8] | MIC PM 10775 [9] | MIC PM 12080 [10] | Compound | MIC MH 6357 [1] | MIC MH 6374 [2] | MIC MH 10720 [3] | MIC MH 12587 [4] | MIC MH 13065 [5] | MIC MH 13093 [6]
50 mg/L (≈ 111 µM) | 0.2 mg/L (≈ 0.445 µM) | 0.4 mg/L (≈ 0.89 µM) | 0.4 mg/L (≈ 0.89 µM) | CC(=O)C(NC(=O)c1ccc(C#Cc2ccc(CNCC3CCCO3)cc2)cc1)C(=O)NO (stereo not shown) [Compound 413] | 12.5 mg/L (≈ 27.8 µM) | 12.5 mg/L (≈ 27.8 µM) | 3.1 mg/L (≈ 6.9 µM) | 6.3 mg/L (≈ 14 µM) | 6.3 mg/L (≈ 14 µM) | 25 mg/L (≈ 55.6 µM)
6.3 mg/L (≈ 12.8 µM) | ≤ 0.1 mg/L | 0.8 mg/L (≈ 1.63 µM) | 0.4 mg/L (≈ 0.815 µM) | CC(=O)C(NC(=O)c1ccc(C#Cc2ccc(CNCc3ccnc(Cl)c3)cc2)cc1)C(=O)NO (stereo not shown) [Compound 408] | 1.6 mg/L (≈ 3.26 µM) | 1.6 mg/L (≈ 3.26 µM) | 1.6 mg/L (≈ 3.26 µM) | 0.4 mg/L (≈ 0.815 µM) | 1.6 mg/L (≈ 3.26 µM) | 1.6 mg/L (≈ 3.26 µM)
≤ 0.1 mg/L | 0.2 mg/L (≈ 0.51 µM) | ≤ 0.1 mg/L | 0.2 mg/L (≈ 0.51 µM) | N#CCNCc1ccc(C#Cc2ccc(C(=O)N[C@@H](CO)C(=O)NO)cc2)cc1 [Compound 216] | 1.6 mg/L (≈ 4.08 µM) | 3.1 mg/L (≈ 7.9 µM) | 0.8 mg/L (≈ 2.04 µM) | 3.1 mg/L (≈ 7.9 µM) | 1.6 mg/L (≈ 4.08 µM) | 3.1 mg/L (≈ 7.9 µM)
